Results taken from the supplement of paper PMC10307832.

Experiments:
Experiment in all cases: relative viability (nuclei count vs DMSO), 5 days (fraction); higher = more cells survive
XMD14-99 + Bortezomib = compound: CN1CCN(CC1)C2=CC(=C(C=C2)NC3=NC(=C(S3)C(=O)C4=C(C=CC=C4Cl)Cl)N)OC [XMD14-99] + CC(C)C[C@H](NC(=O)[C@H](Cc1ccccc1)NC(=O)c1cnccn1)B(O)O [Bortezomib] (partner 0.002 µM)
In short: (§1)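 Relative viability was taken as the ratio of nuclei in treated wells to nuclei in vehicle wells. Lung cancer cell lines in 1536-well plates received compounds by pin tool one day after seeding, either one drug alone or a fixed anchor-drug dose plus five library-drug doses (not always all listed) in √10 steps. Nuclei were counted on 4× images after 5 days of treatment, and values are medians of duplicate plates.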

AZD1208 + AZD7762 = compound: N[C@@H]1CCCN(c2c(/C=C3\SC(=O)NC3=O)cccc2-c2ccccc2)C1 [AZD1208] + NC(=O)Nc1cc(-c2cccc(F)c2)sc1C(=O)N[C@H]1CCCNC1 [AZD7762] (partner 0.2 µM)
In short: as §1

AZD1208 + Bortezomib = compound: N[C@@H]1CCCN(c2c(/C=C3\SC(=O)NC3=O)cccc2-c2ccccc2)C1 [AZD1208] + CC(C)C[C@H](NC(=O)[C@H](Cc1ccccc1)NC(=O)c1cnccn1)B(O)O [Bortezomib] (partner 0.002 µM)
In short: as §1

XMD14-99 + Crizotinib = compound: CN1CCN(CC1)C2=CC(=C(C=C2)NC3=NC(=C(S3)C(=O)C4=C(C=CC=C4Cl)Cl)N)OC [XMD14-99] + C[C@@H](Oc1cc(-c2cnn(C3CCNCC3)c2)cnc1N)c1c(Cl)ccc(F)c1Cl [Crizotinib] (partner 1 µM)
In short: as §1

Cell Line | relative viability (XMD14-99 + Bortezomib; first compound 0.08 µM) | relative viability (XMD14-99 + Bortezomib; first compound 0.8 µM) | relative viability (XMD14-99 + Bortezomib; first compound 2.53 µM) | relative viability (XMD14-99 + Bortezomib; first compound 8 µM) | relative viability (AZD1208 + AZD7762; first compound 0.08 µM) | relative viability (AZD1208 + AZD7762; first compound 0.253 µM) | relative viability (AZD1208 + AZD7762; first compound 0.8 µM) | relative viability (AZD1208 + AZD7762; first compound 2.53 µM) | relative viability (AZD1208 + AZD7762; first compound 8 µM) | relative viability (AZD1208 + Bortezomib; first compound 0.08 µM) | relative viability (AZD1208 + Bortezomib; first compound 0.253 µM) | relative viability (AZD1208 + Bortezomib; first compound 0.8 µM) | relative viability (AZD1208 + Bortezomib; first compound 2.53 µM) | relative viability (AZD1208 + Bortezomib; first compound 8 µM) | relative viability (XMD14-99 + Crizotinib; first compound 0.08 µM) | relative viability (XMD14-99 + Crizotinib; first compound 0.8 µM) | relative viability (XMD14-99 + Crizotinib; first compound 2.53 µM) | relative viability (XMD14-99 + Crizotinib; first compound 8 µM)
NCI-H1975 | 0.388 | 0.359 | 0.347 | 0.272 | 0.746 | 0.784 | 0.691 | 0.746 | 0.642 | 0.415 | 0.404 | 0.304 | 0.353 | 0.357 | 0.934 | 0.984 | 0.902 | 0.74
NCI-H1944 |  |  |  |  | 0.494 | 0.693 | 0.442 | 0.5 | 0.395 |  |  |  |  |  | 1.25 | 1.13 | 0.992 | 0.857
LU99A | 1.17 | 1.06 | 1.11 | 0.956 | 0.371 | 0.385 | 0.41 | 0.435 | 0.365 | 1.07 | 1.2 | 1.27 | 1.12 | 0.904 | 0.612 | 0.489 | 0.542 | 0.468
NCI-H2405 | 1.06 | 0.99 | 0.9 | 0.874 | 0.676 | 0.636 | 0.699 | 0.705 | 0.629 | 0.986 | 1.01 | 0.936 | 1.01 | 0.989 | 0.84 | 0.858 | 0.863 | 0.674
NCI-H2023 | 0.931 | 0.945 | 0.83 | 0.645 |  |  |  |  |  | 0.888 | 1.02 | 0.983 | 0.695 | 0.849 | 0.731 | 0.648 | 0.667 | 0.495
HCC-15 | 1.04 | 0.999 | 0.896 | 0.769 | 1.19 | 1.26 | 1.03 | 1.43 | 1.19 | 1.06 | 1.21 | 1.07 | 1.08 | 0.948 | 0.773 | 0.816 | 0.807 | 0.605
HCC-44 | 0.882 | 0.823 | 0.933 | 0.806 | 1.01 | 1.05 | 1.03 | 1.07 | 1.08 | 0.991 | 0.952 | 0.857 | 0.978 | 0.95 | 0.828 | 0.762 | 0.855 | 0.765
COR-L23 | 1 | 0.816 | 0.86 | 0.576 |  |  |  |  |  | 0.927 | 1.11 | 0.888 | 1.02 | 0.929 | 0.684 | 0.614 | 0.51 | 0.33
HCC-78 | 0.443 | 0.482 | 0.461 | 0.47 | 0.737 | 0.758 | 0.643 | 0.739 | 0.793 | 0.474 | 0.586 | 0.453 | 0.475 | 0.529 | 0.325 | 0.319 | 0.351 | 0.255
NCI-H1299 | 1.09 | 1 | 0.944 | 0.83 |  |  |  |  |  | 1.06 | 1.07 | 0.994 | 0.986 | 1.02 | 0.946 | 0.898 | 0.998 | 0.769
NCI-H661 | 0.708 | 0.669 | 0.793 | 0.674 |  |  |  |  |  | 0.665 | 0.817 | 0.724 | 0.759 | 0.852 | 0.897 |  | 0.894 | 0.838
NCI-H1650 | 0.248 | 0.221 | 0.187 | 0.168 |  |  |  |  |  | 0.201 | 0.19 | 0.226 | 0.199 | 0.192 | 1 | 0.951 | 1.09 | 0.849
NCI-H1793 |  |  |  |  | 0.599 | 0.611 | 0.403 | 0.482 | 0.401 |  |  |  |  |  |  |  |  | 
COR-L 105 | 0.841 | 0.805 | 0.614 | 0.473 |  |  |  |  |  | 0.712 | 1.01 | 0.807 | 0.544 | 0.673 | 0.709 | 0.88 | 0.721 | 0.444
NCI-H2009 | 1.05 | 0.968 | 0.919 | 0.682 |  |  |  |  |  | 1.01 | 1.09 | 0.968 | 0.832 | 1.02 | 1 | 0.939 | 0.997 | 0.767
NCI-H520 | 0.622 | 0.604 | 0.425 | 0.279 |  |  |  |  |  | 0.597 | 0.718 | 0.311 | 0.428 | 0.399 | 0.734 | 0.694 | 0.724 | 0.648
NCI-H1648 |  |  |  |  | 0.584 | 0.618 | 0.684 | 0.533 | 1.28 |  |  |  |  |  |  |  |  | 
NCI-H1563 | 0.885 | 1.07 | 0.85 | 0.686 |  |  |  |  |  | 0.829 | 0.811 | 0.958 | 0.754 | 0.765 | 0.858 | 0.905 | 0.896 | 0.786
A549 |  |  |  |  |  |  |  |  |  |  |  |  |  |  | 0.593 | 0.728 | 0.705 | 0.452
NCI-H522 |  |  |  |  | 0.773 | 0.892 | 0.756 | 0.747 | 0.584 |  |  |  |  |  |  |  |  | 
NCI-H2170 |  |  |  |  | 0.911 | 0.923 | 0.821 | 0.796 | 0.424 |  |  |  |  |  | 1.14 | 1.21 | 1.26 | 0.937
SW 900 |  |  |  |  | 0.62 | 0.518 | 0.453 | 0.576 | 0.485 |  |  |  |  |  |  |  |  | 
NCI-H1395 |  |  |  |  | 0.39 | 0.401 | 0.377 | 0.448 | 0.367 |  |  |  |  |  |  |  |  | 
IA-LM | 0.783 | 0.79 | 0.47 | 0.394 |  |  |  |  |  | 0.648 | 0.708 | 0.876 | 0.724 | 0.746 | 0.742 | 0.561 | 0.435 | 0.331
NCI-H358 |  |  |  |  | 0.454 | 0.579 | 0.436 | 0.467 | 0.451 |  |  |  |  |  | 0.661 | 0.733 | 0.576 | 0.302
EBC-1 | 0.57 | 0.503 | 0.384 | 0.285 |  |  |  |  |  | 0.597 | 0.586 | 0.508 | 0.456 | 0.448 | 0.232 | 0.19 | 0.188 | 0.156
